Assay: xn = mol fraction of the nth substance listed, in the solute-free solvent

Cc1cc(Cl)cc(C(=O)O)c1N + CC(C)=O + CO
solubility (g/100 g solution)
Conditions | 278.15 K | 283.15 K | 288.15 K | 293.15 K | 298.15 K | 303.15 K | 308.15 K | 313.15 K | 318.15 K | 323.15 K
x2 = 0.0885 | 1.19 | 1.38 | 1.68 | 1.99 | 2.4 | 2.86 | 3.39 | 4.09 | 4.87 | 5.8
x2 = 0.1908 | 1.63 | 1.86 | 2.21 | 2.59 | 3.05 | 3.58 | 4.22 | 5.04 | 5.96 | 7.04
x2 = 0.3105 | 2.08 | 2.33 | 2.75 | 3.19 | 3.7 | 4.29 | 5.04 | 5.98 | 7.04 | 8.27
x2 = 0.4522 | 2.52 | 2.8 | 3.28 | 3.79 | 4.35 | 5.01 | 5.85 | 6.92 | 8.12 | 9.48
x2 = 0.6228 | 2.96 | 3.27 | 3.81 | 4.39 | 4.99 | 5.71 | 6.66 | 7.84 | 9.18 | 10.7
x2 = 0.832 | 3.4 | 3.74 | 4.34 | 4.98 | 5.64 | 6.42 | 7.47 | 8.77 | 10.2 | 11.9

Cl.NC(C=O)C(O)C(O)C(O)CO (stereo unspecified) + O + CO
solubility (g/100 g solution)
Conditions | 283.15 K | 288.15 K | 293.15 K | 298.15 K | 303.15 K | 308.15 K | 313.15 K | 318.15 K | 323.15 K
x2 = 0.2 | 0.992 | 1.03 | 1.13 | 1.23 | 1.35 | 1.48 | 1.55 | 1.7 | 1.83
x2 = 0.4 | 2.16 | 2.53 | 2.73 | 2.95 | 3.19 | 3.51 | 3.82 | 4.32 | 4.72
x2 = 0.6 | 4.73 | 5.53 | 6 | 6.76 | 7.4 | 8.23 | 9.01 | 10 | 10.9
x2 = 0.8 | 10.2 | 11.5 | 12.8 | 13.9 | 15.2 | 16.7 | 18.1 | 19.7 | 21.3
x2 = 0.9 | 15.2 | 16.6 | 18 | 19.7 | 21 | 22.9 | 24.2 | 25.8 | 27.9

CC1CCC2(C(=O)O)CCC3(C)C(=CCC4C5(C)CCC(O)C(C)(C)C5CCC43C)C2C1C (stereo unspecified) + CC(C)O + O
solubility (g/100 g solution)
Conditions | 293.15 K | 298.15 K | 303.15 K | 308.15 K | 313.15 K | 318.15 K | 323.15 K | 328.15 K | 333.15 K
x2 = 0.0908 | 0.00219 | 0.00363 | 0.00394 | 0.00575 | 0.00586 | 0.00613 | 0.00653 | 0.00668 | 0.0109
x2 = 0.1389 | 0.00363 | 0.00474 | 0.00741 | 0.00959 | 0.0147 | 0.0158 | 0.0187 | 0.036 | 0.0388
x2 = 0.1969 | 0.0293 | 0.0352 | 0.0473 | 0.0614 | 0.0752 | 0.0821 | 0.0985 | 0.111 | 0.13
x2 = 0.2681 | 0.0944 | 0.118 | 0.13 | 0.142 | 0.158 | 0.22 | 0.239 | 0.282 | 0.33
x2 = 0.3575 | 0.146 | 0.195 | 0.236 | 0.284 | 0.359 | 0.387 | 0.493 | 0.514 | 0.656
x2 = 0.4734 | 0.171 | 0.276 | 0.328 | 0.378 | 0.529 | 0.672 | 1.01 | 1.16 | 1.21

Cl.c1ccc2c(CC3=NCCN3)cccc2c1 + CO + CCOC(C)=O
solubility (g/100 g solution)
Conditions | 278.15 K | 283.15 K | 288.15 K | 293.15 K | 298.15 K | 303.15 K | 308.15 K | 313.15 K | 318.15 K | 323.15 K
x2 = 0.234 | 0.0388 | 0.0424 | 0.0488 | 0.0564 | 0.0653 | 0.0746 | 0.0856 | 0.0943 | 0.107 | 0.124
x2 = 0.4074 | 0.414 | 0.448 | 0.483 | 0.536 | 0.585 | 0.641 | 0.701 | 0.757 | 0.832 | 0.9
x2 = 0.5409 | 1.28 | 1.46 | 1.64 | 1.85 | 2.05 | 2.3 | 2.54 | 2.8 | 3.09 | 3.43
x2 = 0.647 | 2.35 | 2.79 | 3.18 | 3.62 | 4.14 | 4.79 | 5.44 | 6 | 6.94 | 7.75
x2 = 0.7342 | 2.92 | 3.55 | 4.1 | 4.91 | 5.54 | 6.21 | 7.05 | 7.84 | 8.87 | 9.75
x2 = 0.8048 | 4.02 | 4.75 | 5.56 | 6.6 | 7.64 | 8.62 | 10.1 | 11.2 | 12.5 | 14
x2 = 0.8651 | 4.96 | 5.72 | 6.88 | 8.2 | 9.51 | 11.3 | 12.9 | 14.3 | 15.7 | 17.4
x2 = 0.9166 | 5.87 | 6.98 | 8.13 | 9.66 | 11.2 | 13.1 | 15 | 17.1 | 19 | 20.8
x2 = 0.9612 | 6.37 | 7.47 | 8.84 | 10.6 | 12.3 | 14.4 | 16.6 | 18.9 | 21.1 | 23.5

O=C(O)c1ccc(-n2nc(-c3ccccc3O)nc2-c2ccccc2O)cc1 + CCO + CC#N
298.15 K
Conditions | solubility (g/100 g solution)
x2 = 0.09009 | 4.09
x2 = 0.1822 | 7.7
x2 = 0.2764 | 11.7
x2 = 0.3727 | 15.7
x2 = 0.4712 | 18.8
x2 = 0.572 | 21.2
x2 = 0.6752 | 21.4
x2 = 0.7809 | 19.3
x2 = 0.8891 | 15.9

O=CC(O)C(O)C(O)CO (stereo unspecified) + CCO + ClCCl
solubility (g/100 g solution)
Conditions | x2 = 0.1 | x2 = 0.2 | x2 = 0.3 | x2 = 0.4 | x2 = 0.5 | x2 = 0.6 | x2 = 0.7 | x2 = 0.8 | x2 = 0.9
283.15 K | 0.222 | 0.374 | 0.669 | 1.02 | 1.41 | 1.64 | 1.88 | 2.05 | 2.24
288.15 K | 0.227 | 0.458 | 0.813 | 1.26 | 1.81 | 2.12 | 2.32 | 2.57 | 2.85
293.15 K | 0.254 | 0.522 | 1.1 | 1.55 | 2.15 | 2.55 | 2.96 | 3.23 | 3.55
298.15 K | 0.264 | 0.645 | 1.28 | 1.9 | 2.77 | 3.18 | 3.69 | 4.2 | 4.58
303.15 K | 0.325 | 0.776 | 1.43 | 2.28 | 3.27 | 4.09 | 4.72 | 5.4 | 5.99

Cl.c1ccc2c(CC3=NCCN3)cccc2c1 + CO + CC(C)O
solubility (g/100 g solution)
Conditions | 278.15 K | 283.15 K | 288.15 K | 293.15 K | 298.15 K | 303.15 K | 308.15 K | 313.15 K | 318.15 K | 323.15 K
x2 = 0.1724 | 0.41 | 0.484 | 0.577 | 0.695 | 0.819 | 1.01 | 1.16 | 1.42 | 1.62 | 1.85
x2 = 0.3192 | 0.793 | 0.94 | 1.05 | 1.29 | 1.46 | 1.74 | 2.05 | 2.38 | 2.74 | 3.14
x2 = 0.4456 | 1.3 | 1.58 | 1.8 | 2.14 | 2.45 | 2.88 | 3.31 | 3.94 | 4.53 | 5.08
x2 = 0.5556 | 1.91 | 2.41 | 2.82 | 3.29 | 3.8 | 4.3 | 5.07 | 6.02 | 6.76 | 7.78
x2 = 0.6522 | 2.34 | 2.72 | 3.12 | 3.71 | 4.22 | 4.92 | 5.63 | 6.51 | 7.33 | 8.47
x2 = 0.7377 | 2.88 | 3.52 | 4.25 | 5.06 | 5.99 | 6.93 | 7.8 | 8.95 | 10.2 | 11.5
x2 = 0.814 | 3.62 | 4.51 | 5.34 | 6.58 | 7.66 | 8.91 | 10.4 | 11.8 | 13.3 | 14.9
x2 = 0.8823 | 4.46 | 5.61 | 6.67 | 8.06 | 9.39 | 11 | 12.7 | 14.7 | 16.4 | 18.4
x2 = 0.944 | 5.43 | 6.55 | 7.62 | 9.25 | 10.7 | 12.9 | 15 | 17.3 | 19.4 | 21.8

O=CC(O)C(O)C(O)CO (stereo unspecified) + CC(C)O + CCCCCC
solubility (g/100 g solution)
Conditions | x2 = 0.1 | x2 = 0.2 | x2 = 0.3 | x2 = 0.4 | x2 = 0.5 | x2 = 0.6 | x2 = 0.7 | x2 = 0.8 | x2 = 0.9
283.15 K | 0.0751 | 0.111 | 0.142 | 0.164 | 0.188 | 0.271 | 0.405 | 0.615 | 0.82
293.15 K | 0.0952 | 0.126 | 0.198 | 0.238 | 0.307 | 0.453 | 0.646 | 0.819 | 1.12
303.15 K | 0.112 | 0.13 | 0.233 | 0.362 | 0.471 | 0.665 | 1 | 1.4 | 2.1
313.15 K | 0.129 | 0.16 | 0.277 | 0.518 | 0.76 | 1.08 | 1.61 | 2.29 | 3.38
323.15 K | 0.14 | 0.247 | 0.388 | 0.792 | 1.16 | 1.83 | 2.77 | 4 | 6.03

O=C(O)c1ccc(-n2nc(-c3ccccc3O)nc2-c2ccccc2O)cc1 + CC#N + O
298.15 K
Conditions | solubility (g/100 g solution)
x2 = 0.04651 | 0.126
x2 = 0.0989 | 0.161
x2 = 0.1583 | 0.316
x2 = 0.2264 | 0.736
x2 = 0.3051 | 1.86
x2 = 0.397 | 3.21
x2 = 0.506 | 4.64
x2 = 0.6372 | 5.9
x2 = 0.798 | 5.08

CC(=O)OC(OC(C)=O)c1ccc([N+](=O)[O-])o1 + C1CCOC1 + CC#N
solubility (g/100 g solution)
Conditions | 278.15 K | 283.15 K | 288.15 K | 293.15 K | 298.15 K | 303.15 K | 308.15 K | 313.15 K | 318.15 K | 323.15 K
x2 = 0.1463 | 5.45 | 7.32 | 9.5 | 12.1 | 15 | 18.6 | 22.7 | 27.8 | 33.5 | 40
x2 = 0.2961 | 9.28 | 11.7 | 14.9 | 18.5 | 23.1 | 28.4 | 34.3 | 40.7 | 47.5 | 54.4
x2 = 0.4354 | 12.3 | 15.2 | 19.6 | 24.6 | 29.7 | 35.9 | 42.6 | 49.4 | 56 | 62.3
x2 = 0.5816 | 14.6 | 17.7 | 23 | 28.6 | 34.3 | 40.8 | 47.9 | 54.4 | 61 | 67.2
x2 = 0.7445 | 17.2 | 21.4 | 26.5 | 32.5 | 38.5 | 45.1 | 51.9 | 58.3 | 64.6 | 70.5
x2 = 0.8896 | 23.6 | 28 | 33.2 | 39.3 | 45.3 | 51.9 | 57.8 | 63.6 | 68.8 | 73.9

O=C(O)c1ccc(-n2nc(-c3ccccc3O)nc2-c2ccccc2O)cc1 + CC(O)CO + CO
298.15 K
Conditions | solubility (g/100 g solution)
x2 = 0.0447 | 13.5
x2 = 0.09525 | 14.2
x2 = 0.1529 | 14.4
x2 = 0.2192 | 14.6
x2 = 0.2963 | 14.2
x2 = 0.3871 | 13.7
x2 = 0.4956 | 12.9
x2 = 0.6275 | 11.8
x2 = 0.7912 | 10.4

Source: the CheMixHub drug solubility set
